Experimental data published in patent US10757941B2, “Microbiocidal oxadiazole derivatives” (SYNGENTA PARTICIPATIONS AG, priority 2016, dated 2020).

What was measured:
[1] = test system: Glomerella lagenarium (Colletotrichum lagenarium); assay: Fungicidal activity against Glomerella lagenarium (Colletotrichum lagenarium) liquid culture / cucumber / preventative (anthracnose); format: cell-based; details: Colletotrichum orbiculare; 20 ppm in the applied formulation; liquid culture in PDB, 24° C.; inhibition of growth measured photometrically 3 to 4 days after application; compared to untreated; read-out: disease control
Method: Mycelia fragments or conidia suspensions of a fungus prepared either freshly from liquid cultures of the fungus or from cryogenic storage, are directly mixed into nutrient broth. DMSO solutions of the test compound (max. 10 mg/ml) are diluted with 0.025% Tween20 by a factor of 50 and 10 μl of this solution is pipetted into a microtiter plate (96-well format). The nutrient broth containing the fungal spores/mycelia fragments is then added to give an end concentration of the tested compound. The test plates are incubated in the dark at 24° C. and 96% relative humidity. The inhibition of fungal growth is determined photometrically after 2 to 7 days, depending on the pathosystem, and percent antifungal activity relative to the untreated check is calculated. Example 4: Fungicidal Activity Against Glomerella lagenarium (Colletotrichum lagenarium) Liquid Culture/Cucumber/Preventative (Anthracnose) Conidia of the fungus from cryogenic storage are directly mixed into nutrient broth (PDB—potato dextrose broth). After placing a (DMSO) solution of test compound into a microtiter plate (96-well format), the nutrient broth containing the fungal spores is added. The test plates are incubated at 24° C. and the inhibition of growth is measured photometrically 3 to 4 days after application. The following compounds at 20 ppm in the applied formulation give at least 80% disease control in this test when compared to untreated control under the same conditions, which show extensive disease development.

[2] = test system: Puccinia recondita f. Sp. Tritici; assay: Fungicidal activity against Puccinia recondita f. sp. tritici / wheat / leaf disc curative (brown rust); format: in vivo; details: foliar, 200 ppm in the applied formulation, wheat leaf segments cv. Kanzler, curative (applied 1 day after inoculation), assessed 6 to 8 days after application, compared to untreated, read-out: disease control
Method: Leaf disks or leaf segments of various plant species are cut from plants grown in a greenhouse. The cut leaf disks or segments are placed in multiwell plates (24-well format) onto water agar. The leaf disks are sprayed with a test solution before (preventative) or after (curative) inoculation. Compounds to be tested are prepared as DMSO solutions (max. 10 mg/ml) which are diluted to the appropriate concentration with 0.025% Tween20 just before spraying. The inoculated leaf disks or segments are incubated under defined conditions (temperature, relative humidity, light, etc.) according to the respective test system. A single evaluation of disease level is carried out 3 to 14 days after inoculation, depending on the pathosystem. Percent disease control relative to the untreated check leaf disks or segments is then calculated. Example 2: Fungicidal Activity Against Puccinia recondita f. Sp. Tritici/Wheat/Leaf Disc Curative (Brown Rust) Wheat leaf segments cv. Kanzler are placed on agar in multiwell plates (24-well format). The leaf segments are then inoculated with a spore suspension of the fungus. Plates were stored in darkness at 19° C. and 75% relative humidity. The formulated test compound diluted in water was applied 1 day after inoculation. The leaf segments were incubated at 19° C. and 75% relative humidity under a light regime of 12 hours light/12 hours darkness in a climate cabinet and the activity of a compound was assessed as percent disease control compared to untreated when an appropriate level of disease damage appears in untreated check leaf segments (6 to 8 days after application). The following compounds at 200 ppm in the applied formulation give at least 80% disease control in this test when compared to untreated control leaf disks under the same conditions, which show extensive disease development.

[3] = test system: Puccinia recondita f. Sp. Tritici; assay: Fungicidal activity against Puccinia recondita f. sp. tritici / wheat / leaf disc preventative (brown rust); format: in vivo; details: foliar, 200 ppm in the applied formulation, wheat leaf segments cv. Kanzler, preventative (inoculated 1 day after application), assessed 7 to 9 days after application, compared to untreated, read-out: disease control
Method: Leaf disks or leaf segments of various plant species are cut from plants grown in a greenhouse. The cut leaf disks or segments are placed in multiwell plates (24-well format) onto water agar. The leaf disks are sprayed with a test solution before (preventative) or after (curative) inoculation. Compounds to be tested are prepared as DMSO solutions (max. 10 mg/ml) which are diluted to the appropriate concentration with 0.025% Tween20 just before spraying. The inoculated leaf disks or segments are incubated under defined conditions (temperature, relative humidity, light, etc.) according to the respective test system. A single evaluation of disease level is carried out 3 to 14 days after inoculation, depending on the pathosystem. Percent disease control relative to the untreated check leaf disks or segments is then calculated. Example 1: Fungicidal Activity Against Puccinia recondita f. Sp. Tritici/Wheat/Leaf Disc Preventative (Brown Rust) Wheat leaf segments cv. Kanzler were placed on agar in multiwell plates (24-well format) and sprayed with the formulated test compound diluted in water. The leaf disks were inoculated with a spore suspension of the fungus 1 day after application. The inoculated leaf segments were incubated at 19° C. and 75% relative humidity (rh) under a light regime of 12 hours light/12 hours darkness in a climate cabinet and the activity of a compound was assessed as percent disease control compared to untreated when an appropriate level of disease damage appears in untreated check leaf segments (7 to 9 days after application). The following compounds at 200 ppm in the applied formulation give at least 80% disease control in this test when compared to untreated control leaf disks under the same conditions, which show extensive disease development.

[4] = test system: Phakopsora pachyrhizi; assay: Fungicidal activity against Phakopsora pachyrhizi / soybean / leaf disc preventative (Asian soybean rust); format: in vivo; details: foliar, 200 ppm in the applied formulation, soybean leaf disks, preventative (inoculated one day after application), assessed 12 to 14 days after application, compared to untreated, read-out: disease control
Method: Leaf disks or leaf segments of various plant species are cut from plants grown in a greenhouse. The cut leaf disks or segments are placed in multiwell plates (24-well format) onto water agar. The leaf disks are sprayed with a test solution before (preventative) or after (curative) inoculation. Compounds to be tested are prepared as DMSO solutions (max. 10 mg/ml) which are diluted to the appropriate concentration with 0.025% Tween20 just before spraying. The inoculated leaf disks or segments are incubated under defined conditions (temperature, relative humidity, light, etc.) according to the respective test system. A single evaluation of disease level is carried out 3 to 14 days after inoculation, depending on the pathosystem. Percent disease control relative to the untreated check leaf disks or segments is then calculated. Example 3: Fungicidal Activity Against Phakopsora pachyrhizi/Soybean/Leaf Disc Preventative (Asian Soybean Rust) Soybean leaf disks are placed on water agar in multiwell plates (24-well format) and sprayed with the formulated test compound diluted in water. One day after application leaf discs are inoculated by spraying a spore suspension on the lower leaf surface. After an incubation period in a climate cabinet of 24-36 hours in darkness at 20° C. and 75% rh leaf disc are kept at 20° C. with 12 h light/day and 75% rh. The activity of a compound is assessed as percent disease control compared to untreated when an appropriate level of disease damage appears in untreated check leaf disks (12 to 14 days after application). The following compounds at 200 ppm in the applied formulation give at least 80% disease control in this test when compared to untreated control leaf disks under the same conditions, which show extensive disease development.

[5] = test system: Uromyces viciae-fabael; assay: Fungicidal activity against Uromyces viciae-fabae / field bean / leaf disc preventative (faba-bean rust); format: in vivo; details: foliar, 288 h, 100 ppm in the applied formulation, field bean leaf discs, preventative (inoculated two hours after application), assessed 12 days after application, compared to untreated, read-out: disease control
Method: Leaf disks or leaf segments of various plant species are cut from plants grown in a greenhouse. The cut leaf disks or segments are placed in multiwell plates (24-well format) onto water agar. The leaf disks are sprayed with a test solution before (preventative) or after (curative) inoculation. Compounds to be tested are prepared as DMSO solutions (max. 10 mg/ml) which are diluted to the appropriate concentration with 0.025% Tween20 just before spraying. The inoculated leaf disks or segments are incubated under defined conditions (temperature, relative humidity, light, etc.) according to the respective test system. A single evaluation of disease level is carried out 3 to 14 days after inoculation, depending on the pathosystem. Percent disease control relative to the untreated check leaf disks or segments is then calculated. Example 5: Fungicidal Activity Against Uromyces viciae-fabael Field Bean/Leaf Disc Preventative (Faba-Bean Rust) Field bean leaf discs are placed on water agar in multiwell plates (96-well format) and 10 μl of the formulated test compound diluted in acetone and a spreader pipetted onto the leaf disc. Two hours after application leaf discs are inoculated by spraying a spore suspension on the lower leaf surface. The leaf discs are incubated in a climate cabinet at 22° C. with 18 hour day and 70% relative humidity. The activity of a compound is assessed as percent disease control compared to untreated when an appropriate level of disease damage appears in untreated check leaf disks (12 days after application). The following compounds at 100 ppm in the applied formulation give at least 80% disease control in this test when compared to untreated control leaf discs under the same conditions, which show extensive disease development.

O=C(NCC1COCCO1)c1ccc(-c2noc(C(F)(F)F)n2)c(F)c1 (stereo not drawn) [Compound 1.12, N-(1,4-dioxan-2-ylmethyl)-3-fluoro-4-[5-(trifluoromethyl)-1,2,4-oxadiazol-3-yl]benzamide]
≥ 80%: inhibition of growth at 20 ppm [1] | pest or weed control at 200 ppm [2] | pest or weed control at 200 ppm [3] | pest or weed control at 200 ppm [4] | pest or weed control at 100 ppm [5]

O=C(NCC1CCOC1)c1ccc(-c2noc(C(F)(F)F)n2)c(F)c1 (stereo not drawn) [Compound 1.14, 3-fluoro-N-(tetrahydrofuran-3-ylmethyl)-4-[5-(trifluoromethyl)-1,2,4-oxadiazol-3-yl]benzamide]
≥ 80%: inhibition of growth at 20 ppm [1] | pest or weed control at 200 ppm [2] | pest or weed control at 200 ppm [3] | pest or weed control at 200 ppm [4] | pest or weed control at 100 ppm [5]

COCCN(Cc1ccccc1)C(=O)c1ccc(-c2noc(C(F)(F)F)n2)c(F)c1 [Compound 1.16, N-benzyl-3-fluoro-N-(2-methoxyethyl)-4-[5-(trifluoromethyl)-1,2,4-oxadiazol-3-yl]benzamide]
≥ 80%: inhibition of growth at 20 ppm [1] | pest or weed control at 200 ppm [2] | pest or weed control at 200 ppm [3] | pest or weed control at 200 ppm [4] | pest or weed control at 100 ppm [5]

O=C(NCC1CC1)c1ccc(-c2noc(C(F)(F)F)n2)c(F)c1 [Compound 1.20, N-(cyclo-propylmethyl)-3-fluoro-4-[5-(trifluoromethyl)-1,2,4-oxadiazol-3-yl]benzamide]
≥ 80%: inhibition of growth at 20 ppm [1] | pest or weed control at 200 ppm [2] | pest or weed control at 200 ppm [3] | pest or weed control at 200 ppm [4]

CC(NC(=O)c1ccc(-c2noc(C(F)(F)F)n2)c(F)c1)C1CC1 (stereo not drawn) [Compound 1.25, N-(1-cyclopropylethyl)-3-fluoro-4-[5-(trifluoromethyl)-1,2,4-oxadiazol-3-yl]benzamide]
≥ 80%: inhibition of growth at 20 ppm [1] | pest or weed control at 200 ppm [2] | pest or weed control at 200 ppm [3] | pest or weed control at 200 ppm [4] | pest or weed control at 100 ppm [5]

O=C(NC1(C2CC2)CC1)c1ccc(-c2noc(C(F)(F)F)n2)c(F)c1 [Compound 1.27, N-(1-cyclopropyl-cyclopropyl)-3-fluoro-4-[5-(trifluoromethyl)-1,2,4-oxadiazol-3-yl]benzamide]
≥ 80%: inhibition of growth at 20 ppm [1] | pest or weed control at 200 ppm [2] | pest or weed control at 200 ppm [3] | pest or weed control at 200 ppm [4] | pest or weed control at 100 ppm [5]

Cc1ccc(CNC(=O)c2ccc(-c3noc(C(F)(F)F)n3)c(F)c2)o1 [Compound 1.28, 3-fluoro-N-[(5-methyl-2-furyl)methyl]-4-[5-(trifluoromethyl)-1,2,4-oxadiazol-3-yl]benzamide]
≥ 80%: inhibition of growth at 20 ppm [1] | pest or weed control at 200 ppm [2] | pest or weed control at 200 ppm [3] | pest or weed control at 200 ppm [4] | pest or weed control at 100 ppm [5]

O=C(NCc1ccco1)c1ccc(-c2noc(C(F)(F)F)n2)c(F)c1 [Compound 1.31, 3-fluoro-N-(2-furylmethyl)-4-[5-(trifluoromethyl)-1,2,4-oxadiazol-3-yl]benzamide]
≥ 80%: inhibition of growth at 20 ppm [1] | pest or weed control at 200 ppm [2] | pest or weed control at 200 ppm [3] | pest or weed control at 200 ppm [4] | pest or weed control at 100 ppm [5]

O=C(NCCc1cccs1)c1ccc(-c2noc(C(F)(F)F)n2)c(F)c1 [Compound 1.35, 3-fluoro-N-[2-(2-thienyl)ethyl]-4-[5-(trifluoromethyl)-1,2,4-oxadiazol-3-yl]benzamide]
≥ 80%: inhibition of growth at 20 ppm [1] | pest or weed control at 200 ppm [2] | pest or weed control at 200 ppm [3] | pest or weed control at 200 ppm [4] | pest or weed control at 100 ppm [5]

CCCN(CC1CC1)C(=O)c1ccc(-c2noc(C(F)(F)F)n2)c(F)c1 [Compound 1.41, N-(cyclopropyl-methyl)-3-fluoro-N-propyl-4-[5-(trifluoromethyl)-1,2,4-oxadiazol-3-yl]benzamide]
≥ 80%: inhibition of growth at 20 ppm [1] | pest or weed control at 200 ppm [2] | pest or weed control at 200 ppm [4] | pest or weed control at 100 ppm [5]
